Results reported in PubChem BioAssay (NCI).
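Test compounds were applied to cells in 96-well plates for 48 hours at 5 doses. GI50 marks 50% less growth. The concentration for full growth arrest is given as TGI.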

What was measured:
Assay in all cases: inhibition of tumour cell growth, NCI panel, 48 h
[1] = test system: NCI-H460 lung
[2] = test system: HS 578T breast
[3] = test system: IGROV1 ovarian
[4] = test system: MOLT-4 leukemia
[5] = test system: CAKI-1 renal
[6] = test system: MDA-MB-231 breast
[7] = test system: HOP-62 NSCLC
[8] = test system: NCI-H23 lung
[9] = test system: SF-295 CNS
[10] = test system: UO-31 renal
[11] = test system: SK-OV-3 ovarian
[12] = test system: 786-0 renal
[13] = test system: TK-10 renal
[14] = test system: NCI-H522 lung
[15] = test system: OVCAR-3 ovarian
[16] = test system: KM12 colon
[17] = test system: UACC-62 melanoma
[18] = test system: SK-MEL-28 melanoma
[19] = test system: COLO 205 colon
[20] = test system: OVCAR-4 ovarian
[21] = test system: A549 NSCLC
[22] = test system: RXF 393 renal
[23] = test system: U251 CNS
[24] = test system: SF-539 CNS
[25] = test system: SN12C renal
[26] = test system: HCC-2998 colon
[27] = test system: SNB-75 CNS
[28] = test system: A498 renal
[29] = test system: HCT-116 colon
[30] = test system: BT-549 breast
[31] = test system: MCF7 breast
[32] = test system: ACHN renal
[33] = test system: NCI-H226 lung
[34] = test system: SNB-19 CNS
[35] = test system: HCT-15 colon
[36] = test system: M14 melanoma
[37] = test system: MALME-3M melanoma
[38] = test system: K-562 leukemia
[39] = test system: EKVX NSCLC
[40] = test system: OVCAR-8 ovarian
[41] = test system: SF-268 CNS
[42] = test system: PC-3 prostate
[43] = test system: DU-145 prostate
[44] = test system: HL-60(TB) leukemia
[45] = test system: SW-620 colon
[46] = test system: CCRF-CEM leukemia
[47] = test system: SR leukemia
[48] = test system: SK-MEL-5 melanoma
[49] = test system: LOX IMVI melanoma
[50] = test system: MDA-MB-435
[51] = test system: T-47D breast
[52] = test system: RPMI-8226 leukemia
[53] = test system: UACC-257 melanoma
[54] = test system: NCI/ADR-RES ovarian
[55] = test system: OVCAR-5 ovarian
[56] = test system: HT29 colon
[57] = test system: SK-MEL-2 melanoma

CN(C)c1ccc(Nc2ncnc3ccccc23)cc1
GI50 [1]: > 100 µM | TGI [1]: > 100 µM | GI50 [2]: > 100 µM | TGI [2]: > 100 µM | GI50 [3]: > 100 µM | TGI [3]: > 100 µM | GI50 [4]: 18.8 µM | TGI [4]: > 100 µM | GI50 [5]: > 100 µM | TGI [5]: > 100 µM | GI50 [6]: > 100 µM | TGI [6]: > 100 µM | GI50 [7]: > 100 µM | TGI [7]: > 100 µM | GI50 [8]: > 100 µM | TGI [8]: > 100 µM | GI50 [9]: > 100 µM | TGI [9]: > 100 µM | GI50 [10]: > 100 µM | TGI [10]: > 100 µM | GI50 [11]: > 100 µM | TGI [11]: > 100 µM | GI50 [12]: > 100 µM | TGI [12]: > 100 µM | GI50 [13]: > 100 µM | TGI [13]: > 100 µM | GI50 [14]: > 100 µM | TGI [14]: > 100 µM | GI50 [15]: > 100 µM | TGI [15]: > 100 µM | GI50 [16]: > 100 µM | TGI [16]: > 100 µM | GI50 [17]: > 100 µM | TGI [17]: > 100 µM | GI50 [18]: > 100 µM | TGI [18]: > 100 µM | GI50 [19]: > 100 µM | TGI [19]: > 100 µM | GI50 [20]: > 100 µM | TGI [20]: > 100 µM | GI50 [21]: > 100 µM | TGI [21]: > 100 µM | GI50 [22]: > 100 µM | TGI [22]: > 100 µM | GI50 [23]: > 100 µM | TGI [23]: > 100 µM | GI50 [24]: > 100 µM | TGI [24]: > 100 µM | GI50 [25]: > 100 µM | TGI [25]: > 100 µM | GI50 [26]: > 100 µM | TGI [26]: > 100 µM | GI50 [27]: > 100 µM | TGI [27]: > 100 µM | GI50 [28]: > 100 µM | TGI [28]: > 100 µM | GI50 [29]: > 100 µM | TGI [29]: > 100 µM | GI50 [30]: > 100 µM | TGI [30]: > 100 µM | GI50 [31]: > 100 µM | TGI [31]: > 100 µM | GI50 [32]: > 100 µM | TGI [32]: > 100 µM | GI50 [33]: > 100 µM | TGI [33]: > 100 µM | GI50 [34]: > 100 µM | TGI [34]: > 100 µM | GI50 [35]: > 100 µM | TGI [35]: > 100 µM | GI50 [36]: > 100 µM | TGI [36]: > 100 µM | GI50 [37]: > 100 µM | TGI [37]: > 100 µM | GI50 [38]: > 100 µM | TGI [38]: > 100 µM | GI50 [39]: > 100 µM | TGI [39]: > 100 µM | GI50 [40]: > 100 µM | TGI [40]: > 100 µM | GI50 [41]: > 100 µM | TGI [41]: > 100 µM | GI50 [42]: > 100 µM | TGI [42]: > 100 µM | GI50 [43]: > 100 µM | TGI [43]: > 100 µM | GI50 [44]: > 100 µM | TGI [44]: > 100 µM | GI50 [45]: > 100 µM | TGI [45]: > 100 µM | GI50 [46]: > 100 µM | TGI [46]: > 100 µM | GI50 [47]: 54.3 µM | TGI [47]: > 100 µM | GI50 [48]: > 100 µM | TGI [48]: > 100 µM | GI50 [49]: > 100 µM | TGI [49]: > 100 µM | GI50 [50]: > 100 µM | TGI [50]: > 100 µM | GI50 [51]: > 100 µM | TGI [51]: > 100 µM | GI50 [52]: > 100 µM | TGI [52]: > 100 µM | GI50 [53]: > 100 µM | TGI [53]: > 100 µM | GI50 [54]: > 100 µM | TGI [54]: > 100 µM | GI50 [55]: > 100 µM | TGI [55]: > 100 µM | GI50 [56]: > 100 µM | TGI [56]: > 100 µM

COC1CCN(N(C)C)O1 (configuration not stated)
TGI [1]: > 100 µM | TGI [2]: > 100 µM | TGI [3]: > 100 µM | TGI [4]: > 100 µM | TGI [57]: > 100 µM | TGI [5]: > 100 µM | TGI [6]: > 100 µM | TGI [7]: > 100 µM | TGI [8]: > 100 µM | TGI [9]: > 100 µM | TGI [10]: > 100 µM | TGI [12]: > 100 µM | TGI [13]: > 100 µM | TGI [14]: > 100 µM | TGI [15]: > 100 µM | TGI [16]: > 100 µM | TGI [17]: > 100 µM | TGI [18]: > 100 µM | TGI [19]: > 100 µM | TGI [20]: > 100 µM | TGI [21]: > 100 µM | TGI [22]: > 100 µM | TGI [23]: > 100 µM | TGI [25]: > 100 µM | TGI [26]: > 100 µM | TGI [27]: > 100 µM | TGI [28]: > 100 µM | TGI [29]: > 100 µM | TGI [30]: > 100 µM | TGI [31]: > 100 µM | TGI [32]: > 100 µM | TGI [33]: > 100 µM | TGI [34]: > 100 µM | TGI [35]: > 100 µM | TGI [36]: > 100 µM | TGI [37]: > 100 µM | TGI [38]: > 100 µM | TGI [39]: > 100 µM | TGI [40]: > 100 µM | TGI [41]: > 100 µM | TGI [42]: > 100 µM | TGI [43]: > 100 µM | TGI [44]: > 100 µM | TGI [45]: > 100 µM | TGI [46]: > 100 µM | TGI [47]: > 100 µM | TGI [48]: > 100 µM | TGI [49]: > 100 µM | TGI [50]: > 100 µM | TGI [51]: > 100 µM | TGI [52]: > 100 µM | TGI [53]: > 100 µM | TGI [54]: > 100 µM | TGI [55]: > 100 µM | TGI [56]: > 100 µM
